This assay has as its target ex-LdtMt2 (LdtMt2; MT2594; product of gene Rv2518c) (Mycobacterium tuberculosis, UniProt O53223). The assay is described as follows: isothermal titration calorimetry, single-site model. The format is binding.

Each structure is given as a SMILES string.

Regarding `C[C@@H](O)[C@H]1C(=O)N2C(C(=O)O)=C(SCCN=CN)C[C@H]12` [imipenem], the Kd is 54.8 ± 8.8 nM.

Values taken from article PMC3573878 (Structure (London, England : 1993), 2012).
